Among the test systems are HCC 2998; CCRF-CEM; MCF7; UO-31; K562; SF-539; RXF 393; SR; HOP-62; 786-0; IGROV-1; CAKI-1; COLO 205; MDA-MB-435; EKVX; OVCAR-5; UACC-257; U-251; HOP-92; HL-60.
Common to all, as to test: growth of human tumour cells (NCI), 48 h

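A five-concentration, 48-hour dose response in 96-well plates underlies each endpoint, interpolated linearly between surrounding concentrations. Abbreviation: GI50, concentration required for 50% inhibition of growth.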 Activity calls are given as the source filed them. No stated cut-off is given here; in the data, active = GI50 up to about 1.1 µM and inactive = higher. A value given as a limit tells only on which side of the number the result lay.

Regarding `CCCSc1cc(Cl)c(C)cc1S(=O)(=O)n1ccnc1OCCCN(C)C`, the GI50 in the experiment on HCC 2998, with CCRF-CEM, in the experiment with MCF7, in the experiment with UO-31, in the experiment with K562 and in the experiment on SF-539 was > 100 µM (inactive) each time. In addition, the GI50 with RXF 393, in the experiment with SR, in the experiment with HOP-62, with 786-0, in the experiment on IGROV-1 and in the experiment on CAKI-1 was > 100 µM (inactive) each time. Further, the GI50 in the experiment on COLO 205, in the experiment on MDA-MB-435, with EKVX, in the experiment on OVCAR-5, in the experiment with UACC-257 and in the experiment on U-251 was > 100 µM (inactive) throughout.

Regarding `Nc1nc(Cl)c(N)c(NC23CC4CC(CC(C4)C2)C3)n1`, the GI50 in the experiment on HCC 2998 is 2.25 µM (inactive); in the experiment with HOP-92, 3.89 µM (inactive); in the experiment with CCRF-CEM, 1.62 µM (inactive); with MCF7, 1.68 µM (inactive); with UO-31 it was 1.69 µM (inactive); in the experiment on K562, 2.08 µM (inactive). The GI50 with SF-539 was 2.16 µM (inactive); in the experiment with RXF 393, 1.61 µM (inactive); in the experiment with SR, 2.56 µM (inactive); in the experiment with HOP-62 it was 1.87 µM (inactive); in the experiment on 786-0, 1.67 µM (inactive); in the experiment on IGROV-1, 3.85 µM (inactive). Also, the GI50 was 1.93 µM (inactive) in the experiment on CAKI-1; 1.58 µM (inactive) in the experiment with COLO 205; 1.41 µM (inactive) in the experiment on MDA-MB-435; 2.18 µM (inactive) in the experiment with EKVX; 1.4 µM (inactive) in the experiment on OVCAR-5; 2.36 µM (inactive) in the experiment on UACC-257. The GI50 with U-251 is 1.66 µM (inactive).

Turning to `O=C(/C=C/c1ccc(Cl)cc1)Oc1ccc(C=C2CCC/C(=C\c3ccc(OC(=O)/C=C/c4ccc(Cl)cc4)cc3)C2=O)cc1`, the GI50 in the experiment with HCC 2998, in the experiment with HOP-92, in the experiment on MCF7, in the experiment with UO-31, with K562 and in the experiment with SF-539 was > 100 µM (inactive) each time. Also, the GI50 in the experiment on RXF 393, in the experiment on HOP-62, in the experiment on 786-0, in the experiment with IGROV-1, in the experiment with CAKI-1 and in the experiment on COLO 205 was > 100 µM (inactive) throughout. Further, the GI50 in the experiment on MDA-MB-435, in the experiment on EKVX, with OVCAR-5, in the experiment on UACC-257 and in the experiment on U-251 was > 100 µM (inactive) each time.

Take `CC(Nc1cccc(Cl)c1)c1ccncc1` (configuration not stated): the GI50 is 73.1 µM (inactive) with HOP-92; > 100 µM (inactive) with CCRF-CEM; > 100 µM (inactive) in the experiment on MCF7; 7.21 µM (inactive) in the experiment on UO-31; 23.1 µM (inactive) with K562; > 100 µM (inactive) with SF-539. The GI50 with RXF 393 was 42.8 µM (inactive); in the experiment on HOP-62, > 100 µM (inactive); with 786-0 it was > 100 µM (inactive); in the experiment with IGROV-1, > 100 µM (inactive); with CAKI-1 it was 40.7 µM (inactive); in the experiment on COLO 205, > 100 µM (inactive). Further, the GI50 was 56.2 µM (inactive) with MDA-MB-435; 57.9 µM (inactive) with EKVX; 51.5 µM (inactive) with OVCAR-5; 74.1 µM (inactive) with UACC-257; > 100 µM (inactive) with U-251.

`Cc1ccc(S(=O)(=O)N2CCSCCSCCN(S(=O)(=O)c3ccc(C)cc3)CCN(S(=O)(=O)c3ccc(C)cc3)CC2)cc1`: the GI50 in the experiment with HCC 2998, with HOP-92, with CCRF-CEM, with MCF7, in the experiment with UO-31 and in the experiment on K562 was > 100 µM (inactive) in each case. In addition, the GI50 in the experiment on SF-539, in the experiment on HL-60, in the experiment on RXF 393, in the experiment on HOP-62, in the experiment with 786-0 and with IGROV-1 was > 100 µM (inactive) in each case. Further, the GI50 in the experiment with CAKI-1, with COLO 205, with MDA-MB-435, in the experiment on EKVX, with OVCAR-5 and in the experiment with UACC-257 was > 100 µM (inactive) each time. The GI50 with U-251 is > 100 µM (inactive).

As for `O=C(CNC(=O)OCc1ccccc1)NCCCCC(NC(=O)OCc1ccccc1)C(=O)NC(CCCCNC(=O)CNC(=O)OCc1ccccc1)C(=O)OCc1ccccc1` (configuration not stated), the GI50 with HCC 2998, with CCRF-CEM, in the experiment on MCF7, in the experiment on UO-31, in the experiment on K562 and in the experiment with HL-60 was > 62.5 µM (inactive) throughout. The GI50 in the experiment with SR, in the experiment with HOP-62, in the experiment on 786-0, in the experiment with IGROV-1, with CAKI-1 and in the experiment with MDA-MB-435 was > 62.5 µM (inactive) throughout. The GI50 with OVCAR-5, in the experiment on UACC-257 and in the experiment with U-251 was > 62.5 µM (inactive) throughout.

In the case of `O=C(NCCN(CCNC(=O)c1cccc(=O)n1O)CCN(CCNC(=O)c1cccc(=O)n1O)CCNC(=O)c1cccc(=O)n1O)c1cccc(=O)n1O`, the GI50 with HCC 2998, in the experiment with HOP-92, in the experiment on CCRF-CEM, in the experiment with MCF7, in the experiment with UO-31 and with K562 was > 100 µM (inactive) throughout. The GI50 in the experiment on SF-539 was > 100 µM (inactive); in the experiment with HL-60 it was 44.2 µM (inactive); in the experiment with RXF 393, > 100 µM (inactive); with HOP-62, > 100 µM (inactive); with 786-0 it was > 100 µM (inactive); with IGROV-1, > 100 µM (inactive). Besides, the GI50 in the experiment on CAKI-1, with COLO 205, in the experiment with MDA-MB-435, with OVCAR-5, in the experiment on UACC-257 and in the experiment with U-251 was > 100 µM (inactive) in each case.

Take `Cc1cccc(N(CCC#N)S(=O)(=O)c2ccccc2)c1`: the GI50 was > 100 µM (inactive) with HCC 2998; > 100 µM (inactive) in the experiment with HOP-92; > 100 µM (inactive) in the experiment on CCRF-CEM; > 100 µM (inactive) in the experiment with MCF7; 97.7 µM (inactive) in the experiment on UO-31; > 100 µM (inactive) in the experiment with K562. In addition, the GI50 in the experiment with SF-539, in the experiment with HL-60, in the experiment on SR, with HOP-62, in the experiment with 786-0 and in the experiment with IGROV-1 was > 100 µM (inactive) throughout. Also, the GI50 in the experiment on CAKI-1, in the experiment on COLO 205, in the experiment with MDA-MB-435, in the experiment with EKVX, in the experiment on OVCAR-5 and in the experiment with UACC-257 was > 100 µM (inactive) each time. In addition, the GI50 in the experiment on U-251 is > 100 µM (inactive).

With `Nc1cc(CO)cc(Nc2nc3ccc(Cl)cc3c3[nH]c4ccccc4c23)c1`, the GI50 is 2.43 µM (inactive) with HOP-92; 4.79 µM (inactive) with CCRF-CEM; 0.67 µM (active) with MCF7; 2.9 µM (inactive) in the experiment on UO-31; 4.67 µM (inactive) in the experiment with K562; 3.34 µM (inactive) with SF-539. Besides, the GI50 was 21.7 µM (inactive) in the experiment on HL-60; 2.16 µM (inactive) with SR; 7.19 µM (inactive) with HOP-62; 1.98 µM (inactive) in the experiment with 786-0; 1.54 µM (inactive) with IGROV-1; 2.69 µM (inactive) with CAKI-1. The GI50 in the experiment on COLO 205 is 2.29 µM (inactive); with MDA-MB-435 it was 3.85 µM (inactive); with EKVX, 1.52 µM (inactive); with OVCAR-5, 3.85 µM (inactive); in the experiment on UACC-257, 10.7 µM (inactive); in the experiment with U-251, 3.05 µM (inactive).

`O=C(CSCC(=O)N/N=C/c1ccncc1)N/N=C/c1ccncc1`: the GI50 with HCC 2998, in the experiment with HOP-92, with CCRF-CEM, in the experiment with MCF7, in the experiment with UO-31 and in the experiment on K562 was > 100 µM (inactive) each time. Moreover, the GI50 in the experiment with SF-539, with HL-60, in the experiment with RXF 393, in the experiment on HOP-62, with 786-0 and in the experiment on IGROV-1 was > 100 µM (inactive) throughout. In addition, the GI50 in the experiment with CAKI-1, in the experiment with MDA-MB-435, in the experiment with EKVX, in the experiment with OVCAR-5, in the experiment on UACC-257 and in the experiment with U-251 was > 100 µM (inactive) each time.

Regarding `Cn1c(=N)n[n+]([O-])c2ccccc21`, the GI50 with HCC 2998 was 20.6 µM (inactive); in the experiment with HOP-92, 23.7 µM (inactive); in the experiment with CCRF-CEM it was 4.24 µM (inactive); in the experiment with MCF7 it was 1.8 µM (inactive); with UO-31, 5.16 µM (inactive); with K562 it was 1.36 µM (inactive). Also, the GI50 with SF-539 is 1.5 µM (inactive); in the experiment with HL-60, 2.17 µM (inactive); in the experiment on RXF 393, 19.6 µM (inactive); in the experiment with HOP-62 it was 2.52 µM (inactive); in the experiment with 786-0 it was 8.2 µM (inactive); with IGROV-1 it was 3.46 µM (inactive). Besides, the GI50 in the experiment on CAKI-1 is 2.31 µM (inactive); with COLO 205 it was 2.33 µM (inactive); in the experiment with MDA-MB-435 it was 0.877 µM (active); with EKVX, 9.93 µM (inactive); in the experiment with OVCAR-5, 2.51 µM (inactive); in the experiment on UACC-257 it was 1.94 µM (inactive). In the experiment with U-251, the GI50 is 7.69 µM (inactive).

Source of the values: ChEMBL document CHEMBL1201862, “PubChem BioAssay data set” (2004).
